Reference: paper PMC5218480 (PLoS ONE, 2017)

System: MV-4-11 cells
Assay: Gene expression microarray analysis (Affymetrix PrimeView) and GSEA
Assay type: cell-based, human
Design: RFU PODN (11730768_x_at) / Fold change /veh PODN (11730768_x_at) / RFU LINC00158 (11744669_a_at) / Fold change /veh LINC00158 (11744669_a_at) / RFU DUSP10 (11751237_a_at) / Fold change /veh DUSP10 (11751237_a_at) / RFU ID3 (11757404_x_at) / Fold change /veh ID3 (11757404_x_at) / RFU PLEKHG5 (11737974_s_at) / Fold change /veh PLEKHG5 (11737974_s_at) / RFU LRRC4B (11730491_at) / Fold change /veh LRRC4B (11730491_at) / RFU GIMAP4 (11747438_a_at) / Fold change /veh GIMAP4 (11747438_a_at) / RFU KRT8 (11758183_x_at) / Fold change /veh KRT8 (11758183_x_at) / RFU CNN1 (11734310_a_at) / Fold change /veh CNN1 (11734310_a_at) / RFU VPS37D (11726825_at) / Fold change /veh VPS37D (11726825_at) / RFU C10orf10 (11716522_x_at) / Fold change /veh C10orf10 (11716522_x_at) / RFU KIR2DL2 /// KIR2DL4 /// KIR2DL5A /// KIR2DL5B /// KIR2DS1 /// KIR2DS2 /// KIR2DS3 /// KIR2DS4 /// KIR3DL3 /// KIR3DL3 /// KIR3DS1 (11738374_at) / Fold change /veh KIR2DL2 /// KIR2DL4 /// KIR2DL5A /// KIR2DL5B /// KIR2DS1 /// KIR2DS2 /// KIR2DS3 /// KIR2DS4 /// KIR3DL3 /// KIR3DL3 /// KIR3DS1 (11738374_at) / RFU C1QL1 (11718748_at) / Fold change /veh C1QL1 (11718748_at) / RFU TMPRSS4 (11747572_a_at) / Fold change /veh TMPRSS4 (11747572_a_at) / RFU HAMP (11756126_x_at) / Fold change /veh HAMP (11756126_x_at) / RFU RNFT2 (11725882_a_at) / Fold change /veh RNFT2 (11725882_a_at) / RFU NR4A2 (11747474_a_at) / Fold change /veh NR4A2 (11747474_a_at) / RFU ABCC12 (11746883_a_at) / Fold change /veh ABCC12 (11746883_a_at) / RFU TMEM136 (11760407_x_at) / Fold change /veh TMEM136 (11760407_x_at) / RFU CLDN22 /// WWC2 (11732394_at) / Fold change /veh CLDN22 /// WWC2 (11732394_at) / RFU HLA-DPB1 (11760878_x_at) / Fold change /veh HLA-DPB1 (11760878_x_at) / RFU SPINT1 (11716480_a_at) / Fold change /veh SPINT1 (11716480_a_at) / RFU GAP43 (11754022_s_at) / Fold change /veh GAP43 (11754022_s_at) / RFU A4GNT (11735810_at) / Fold change /veh A4GNT (11735810_at) / RFU PRB3 (11715151_x_at) / Fold change /veh PRB3 (11715151_x_at) / RFU TUBB4B (11761932_at) / Fold change /veh TUBB4B (11761932_at) / RFU CAPN14 (11732068_a_at) / Fold change /veh CAPN14 (11732068_a_at) / RFU TMCC2 (11721928_a_at) / Fold change /veh TMCC2 (11721928_a_at) / RFU IRGQ (11745062_a_at) / Fold change /veh IRGQ (11745062_a_at) / RFU FAM174B (11720279_a_at) / Fold change /veh FAM174B (11720279_a_at) / RFU TMPRSS4 (11748680_a_at) / Fold change /veh TMPRSS4 (11748680_a_at) / RFU FAM212B (11763350_a_at) / Fold change /veh FAM212B (11763350_a_at) / RFU PLEKHG5 (11743358_a_at) / Fold change /veh PLEKHG5 (11743358_a_at) / RFU ZSCAN30 (11745921_a_at) / Fold change /veh ZSCAN30 (11745921_a_at) / RFU CMKLR1 (11741424_a_at) / Fold change /veh CMKLR1 (11741424_a_at) / RFU LOC101060620 /// MAPK8IP1 (11723275_at) / Fold change /veh LOC101060620 /// MAPK8IP1 (11723275_at) / RFU SPTSSB (11747773_x_at) / Fold change /veh SPTSSB (11747773_x_at) / RFU PRSS12 (11739890_at) / Fold change /veh PRSS12 (11739890_at) / RFU BIN1 (11741810_x_at) / Fold change /veh BIN1 (11741810_x_at) / RFU WNT11 (11732464_a_at) / Fold change /veh WNT11 (11732464_a_at) / RFU C10orf10 (11716521_a_at) / Fold change /veh C10orf10 (11716521_a_at) / RFU C5orf56 (11738089_at) / Fold change /veh C5orf56 (11738089_at) / RFU CYB561 (11721691_x_at) / Fold change /veh CYB561 (11721691_x_at) / RFU ANKRD19P (11752326_a_at) / Fold change /veh ANKRD19P (11752326_a_at) / RFU OR2T12 /// OR2T33 /// OR2T8 (11738714_s_at) / Fold change /veh OR2T12 /// OR2T33 /// OR2T8 (11738714_s_at) / RFU VCAN (11748164_a_at) / Fold change /veh VCAN (11748164_a_at) / RFU JSRP1 (11732532_at) / Fold change /veh JSRP1 (11732532_at) / RFU KRTAP10-11 (11738290_x_at) / Fold change /veh KRTAP10-11 (11738290_x_at) / RFU MYO3A (11730013_a_at) / Fold change /veh MYO3A (11730013_a_at) / RFU EBF3 (11725865_a_at) / Fold change /veh EBF3 (11725865_a_at) / RFU CAMK2N1 (11719241_x_at) / Fold change /veh CAMK2N1 (11719241_x_at) / RFU C5orf56 (11738088_a_at) / Fold change /veh C5orf56 (11738088_a_at) / RFU OLFML3 (11715873_a_at) / Fold change /veh OLFML3 (11715873_a_at) / RFU LOC100653217 /// NTM (11731650_a_at) / Fold change /veh LOC100653217 /// NTM (11731650_a_at) / RFU MAPK11 (11762145_a_at) / Fold change /veh MAPK11 (11762145_a_at) / RFU FIZ1 (11724087_x_at) / Fold change /veh FIZ1 (11724087_x_at) / RFU OASL (11726364_x_at) / Fold change /veh OASL (11726364_x_at) / RFU SOX15 (11748057_x_at) / Fold change /veh SOX15 (11748057_x_at) / RFU CD79A (11719716_a_at) / Fold change /veh CD79A (11719716_a_at) / RFU HIST1H1D (11736915_at) / Fold change /veh HIST1H1D (11736915_at) / RFU CASKIN2 (11723855_a_at) / Fold change /veh CASKIN2 (11723855_a_at) / RFU LOC730098 (11760151_x_at) / Fold change /veh LOC730098 (11760151_x_at) / RFU OR4N2 (11742367_at) / Fold change /veh OR4N2 (11742367_at) / RFU PRRT2 (11749266_a_at) / Fold change /veh PRRT2 (11749266_a_at) / RFU SNX32 (11753110_a_at) / Fold change /veh SNX32 (11753110_a_at) / RFU CDHR5 (11726645_a_at) / Fold change /veh CDHR5 (11726645_a_at) / RFU RCAN1 (11760418_a_at) / Fold change /veh RCAN1 (11760418_a_at) / RFU FAM167A (11723789_a_at) / Fold change /veh FAM167A (11723789_a_at) / RFU FAM26E (11764081_at) / Fold change /veh FAM26E (11764081_at) / RFU ISYNA1 (11749810_s_at) / Fold change /veh ISYNA1 (11749810_s_at) / RFU ACY1 (11761880_at) / Fold change /veh ACY1 (11761880_at) / RFU 11764098_at / Fold change /veh 11764098_at / RFU SAMD14 (11745864_x_at) / Fold change /veh SAMD14 (11745864_x_at) / RFU NPB (11741838_a_at) / Fold change /veh NPB (11741838_a_at) / RFU TMPRSS6 (11731388_a_at) / Fold change /veh TMPRSS6 (11731388_a_at) / RFU KRTAP10-2 (11738614_at) / Fold change /veh KRTAP10-2 (11738614_at) / RFU ARHGAP8 /// PRR5-ARHGAP8 (11727945_x_at) / Fold change /veh ARHGAP8 /// PRR5-ARHGAP8 (11727945_x_at) / RFU KRTAP5-7 /// NADSYN1 (11734609_at) / Fold change /veh KRTAP5-7 /// NADSYN1 (11734609_at) / RFU RASL12 (11751679_a_at) / Fold change /veh RASL12 (11751679_a_at) / RFU CDKN2B (11736163_a_at) / Fold change /veh CDKN2B (11736163_a_at) / RFU PRF1 (11729649_at) / Fold change /veh PRF1 (11729649_at) / RFU, ZNF638 /// ZNF638-IT1 / Fold change vs veh, ZNF638 /// ZNF638-IT1 / RFU, PANK3 / Fold change vs veh, PANK3 / RFU, SH3YL1 / Fold change vs veh, SH3YL1 / RFU, ZEB2 / Fold change vs veh, ZEB2 / RFU, NRIP1 / Fold change vs veh, NRIP1 / RFU, PTTG1IP / Fold change vs veh, PTTG1IP / RFU, CAPN2 / Fold change vs veh, CAPN2 / RFU, MED14 / Fold change vs veh, MED14 / RFU, SNORA58 / Fold change vs veh, SNORA58 / RFU, C1orf63 / Fold change vs veh, C1orf63 / RFU, LRRFIP1 / Fold change vs veh, LRRFIP1 / RFU, NDUFAF7 / Fold change vs veh, NDUFAF7 / RFU, SLC12A2 / Fold change vs veh, SLC12A2 / RFU, IBTK / Fold change vs veh, IBTK / RFU, ESF1 / Fold change vs veh, ESF1 / Fold change vs veh, TMEM50B / RFU, TAOK1 / Fold change vs veh, TAOK1 / RFU, ACBD3 / Fold change vs veh, ACBD3 / RFU, TMA16 / Fold change vs veh, TMA16 / RFU, RWDD3 / Fold change vs veh, RWDD3 / RFU, BCAT1 / Fold change vs veh, BCAT1 / RFU, EDEM3 / Fold change vs veh, EDEM3 / RFU, TMEM33 / Fold change vs veh, TMEM33 / RFU, WDR75 / Fold change vs veh, WDR75 / RFU, AHCTF1 / Fold change vs veh, AHCTF1 / RFU, TFRC / Fold change vs veh, TFRC / RFU, ZDHHC17 / Fold change vs veh, ZDHHC17 / RFU, NOM1 / Fold change vs veh, NOM1 / RFU, ARL8B / Fold change vs veh, ARL8B / RFU, ZBTB11 / Fold change vs veh, ZBTB11 / RFU, TAMM41 / Fold change vs veh, TAMM41 / RFU, KIAA1704 /// LOC100996395 / Fold change vs veh, KIAA1704 /// LOC100996395 / RFU, ING1 / Fold change vs veh, ING1 / RFU, TRMT61B / Fold change vs veh, TRMT61B / RFU, FUBP3 / Fold change vs veh, FUBP3 / RFU, TP53 / Fold change vs veh, TP53 / RFU, TNKS2 / Fold change vs veh, TNKS2 / RFU, ZFP14 / Fold change vs veh, ZFP14 / RFU, ACTR2 / Fold change vs veh, ACTR2 / RFU, PPP3R1 / Fold change vs veh, PPP3R1 / RFU, PIK3R1 / Fold change vs veh, PIK3R1 / RFU, HNRNPA1 / Fold change vs veh, HNRNPA1 / RFU, RNF170 / Fold change vs veh, RNF170 / RFU, ZNF28 / Fold change vs veh, ZNF28 / RFU, RNGTT / Fold change vs veh, RNGTT / RFU, OGT / Fold change vs veh, OGT / RFU, BRD1 / Fold change vs veh, BRD1 / RFU, MARS / Fold change vs veh, MARS / RFU, ZNF655 / Fold change vs veh, ZNF655 / RFU, FAHD1 / Fold change vs veh, FAHD1 / RFU, BDP1 / Fold change vs veh, BDP1 / RFU, LRRCC1 / Fold change vs veh, LRRCC1 / RFU, ARID1A / Fold change vs veh, ARID1A / RFU, ZNF146 / Fold change vs veh, ZNF146 / RFU, ZNF330 / Fold change vs veh, ZNF330 / RFU, GPN3 / Fold change vs veh, GPN3 / RFU, C9orf123 / Fold change vs veh, C9orf123 / RFU, N4BP2L2 / Fold change vs veh, N4BP2L2 / RFU, ARFIP1 / Fold change vs veh, ARFIP1 / RFU, FAM179B / Fold change vs veh, FAM179B / RFU, BCL10 / Fold change vs veh, BCL10 / RFU, UHRF1BP1L / Fold change vs veh, UHRF1BP1L / RFU, BET1 / Fold change vs veh, BET1 / RFU, CNOT2 / Fold change vs veh, CNOT2 / RFU, ZNF268 / Fold change vs veh, ZNF268 / Fold change vs veh, ZNF507 / RFU, DGCR2 / Fold change vs veh, DGCR2 / RFU, WDSUB1 / Fold change vs veh, WDSUB1 / Fold change vs veh, HSP90B1 /// MIR3652 / RFU, ADSS / Fold change vs veh, ADSS / RFU, GK / Fold change vs veh, GK / RFU, ZNF148 / Fold change vs veh, ZNF148 / RFU, TAF9 / Fold change vs veh, TAF9 / RFU, SLC1A5 / Fold change vs veh, SLC1A5 / RFU, SLMO2 / Fold change vs veh, SLMO2 / RFU, ABCC4 / Fold change vs veh, ABCC4 / RFU, LOC101060439 /// RAP1B / Fold change vs veh, LOC101060439 /// RAP1B / RFU, RFX7 / Fold change vs veh, RFX7 / RFU, GTPBP10 / Fold change vs veh, GTPBP10 / RFU, CNEP1R1 / Fold change vs veh, CNEP1R1 / RFU, BIVM-ERCC5 /// ERCC5 / Fold change vs veh, BIVM-ERCC5 /// ERCC5 / RFU, ILF3 / Fold change vs veh, ILF3 / RFU 11762660_at / Fold change /veh 11762660_at / RFU VCAN (11757783_s_at) / Fold change /veh VCAN (11757783_s_at) / RFU DDX43 (11728927_at) / Fold change /veh DDX43 (11728927_at) / RFU KRT8 (11758188_x_at) / Fold change /veh KRT8 (11758188_x_at) / RFU NKD1 (11759106_at) / Fold change /veh NKD1 (11759106_at) / RFU SRD5A1 (11742802_a_at) / Fold change /veh SRD5A1 (11742802_a_at) / RFU TPSAB1 /// TPSB2 (11721975_s_at) / Fold change /veh TPSAB1 /// TPSB2 (11721975_s_at) / RFU GSTM3 (11746129_a_at) / Fold change /veh GSTM3 (11746129_a_at) / RFU IL23R (11737362_x_at) / Fold change /veh IL23R (11737362_x_at) / RFU TMEM51 (11727254_a_at) / Fold change /veh TMEM51 (11727254_a_at) / RFU PIWIL2 (11732686_x_at) / Fold change /veh PIWIL2 (11732686_x_at) / RFU ORM1 (11744905_x_at) / Fold change /veh ORM1 (11744905_x_at) / RFU CCDC152 (11743942_at) / Fold change /veh CCDC152 (11743942_at) / RFU ECM1 (11717891_a_at) / Fold change /veh ECM1 (11717891_a_at) / RFU IL23R (11748794_a_at) / Fold change /veh IL23R (11748794_a_at) / RFU TNFAIP8L3 (11732012_x_at) / Fold change /veh TNFAIP8L3 (11732012_x_at) / RFU MBOAT4 (11741988_at) / Fold change /veh MBOAT4 (11741988_at) / RFU 11764193_at / Fold change /veh 11764193_at / RFU TMEM53 (11763286_at) / Fold change /veh TMEM53 (11763286_at) / RFU MAGEB2 (11727129_at) / Fold change /veh MAGEB2 (11727129_at) / RFU TMEM200A (11744735_a_at) / Fold change /veh TMEM200A (11744735_a_at) / RFU CCDC152 (11751479_a_at) / Fold change /veh CCDC152 (11751479_a_at) / RFU FAM211A (11726209_a_at) / Fold change /veh FAM211A (11726209_a_at) / RFU RGS16 (11746705_a_at) / Fold change /veh RGS16 (11746705_a_at) / RFU VCAN (11755009_s_at) / Fold change /veh VCAN (11755009_s_at) / RFU RHOB (11743442_s_at) / Fold change /veh RHOB (11743442_s_at) / RFU RGS16 (11720943_a_at) / Fold change /veh RGS16 (11720943_a_at) / RFU RGS16 (11720944_at) / Fold change /veh RGS16 (11720944_at) / RFU, VPS4B / Fold change vs veh, VPS4B / RFU, CREB1 / Fold change vs veh, CREB1 / RFU, DNAJC13 / Fold change vs veh, DNAJC13 / RFU, GNAQ / Fold change vs veh, GNAQ / RFU, CDK5R1 / Fold change vs veh, CDK5R1 / RFU, ZRANB3 / Fold change vs veh, ZRANB3 / RFU, CUL4A / Fold change vs veh, CUL4A / RFU, CCNY / Fold change vs veh, CCNY / RFU, UFL1 / Fold change vs veh, UFL1 / RFU, COG3 / Fold change vs veh, COG3 / RFU, DIAPH2 / Fold change vs veh, DIAPH2 / RFU, SKA2 / Fold change vs veh, SKA2 / RFU, AFF3 / Fold change vs veh, AFF3 / RFU, LMF1 / Fold change vs veh, LMF1 / RFU, IPO11 / Fold change vs veh, IPO11 / RFU, DFFB / Fold change vs veh, DFFB / RFU, FOXP1 / Fold change vs veh, FOXP1 / RFU, CARD8 / Fold change vs veh, CARD8 / RFU, STRN3 / Fold change vs veh, STRN3 / RFU, ADK / Fold change vs veh, ADK / RFU, RASSF2 / Fold change vs veh, RASSF2 / RFU, WIPF1 / Fold change vs veh, WIPF1 / RFU, LARP1B / Fold change vs veh, LARP1B / RFU, RASA1 / Fold change vs veh, RASA1 / RFU, RB1 / Fold change vs veh, RB1 / RFU, PPFIA1 / Fold change vs veh, PPFIA1 / RFU, MAT2A / Fold change vs veh, MAT2A / RFU, CCT5 / Fold change vs veh, CCT5 / RFU, WDR92 / Fold change vs veh, WDR92 / RFU, CUX1 / Fold change vs veh, CUX1 / RFU, TTC7A / Fold change vs veh, TTC7A / RFU, TMEM135 / Fold change vs veh, TMEM135 / RFU, DEPTOR / Fold change vs veh, DEPTOR / RFU, CPM / Fold change vs veh, CPM / RFU, DNAJB6 / Fold change vs veh, DNAJB6 / RFU, CACNA2D3 / Fold change vs veh, CACNA2D3 / RFU, DTX4 / Fold change vs veh, DTX4 / RFU, TFCP2 / Fold change vs veh, TFCP2 / RFU, GMCL1 /// GMCL1P1 / Fold change vs veh, GMCL1 /// GMCL1P1 / RFU, AEBP2 / Fold change vs veh, AEBP2 / RFU, SNHG1 /// SNORD22 /// SNORD25 /// SNORD26 /// SNORD27 /// SNORD28 /// SNORD29 /// SNORD31 / Fold change vs veh, SNHG1 /// SNORD22 /// SNORD25 /// SNORD26 /// SNORD27 /// SNORD28 /// SNORD29 /// SNORD31 / Fold change (Aza/veh), C12orf56 (ProbeSet 11735607_a_at) / Fold change (ACY-1035/veh), C12orf56 (ProbeSet 11735607_a_at) / Fold change (Aza/veh), FGFR1OP (ProbeSet 11751329_s_at) / Fold change (ACY-1035/veh), FGFR1OP (ProbeSet 11751329_s_at) / Fold change (Aza/veh), VPS36 (ProbeSet 11739960_a_at) / Fold change (ACY-1035/veh), VPS36 (ProbeSet 11739960_a_at) / RFU SYPL1 (11715823_x_at) / Fold change /veh SYPL1 (11715823_x_at) / RFU IGFBP7 (11715501_s_at) / Fold change /veh IGFBP7 (11715501_s_at) / RFU REEP3 (11722064_at) / Fold change /veh REEP3 (11722064_at) / RFU IGLL1 (11728026_x_at) / Fold change /veh IGLL1 (11728026_x_at): dose or concentration left out as unconfirmed
Details: ProbeSet 11728879_at; LIST B

In the case of Nc1ncn([C@@H]2O[C@H](CO)[C@@H](O)[C@H]2O)c(=O)n1 [azacitidine], the “RFU, PPP3R1” value is reported as 331.25 RFU.
